From patent publication US11358969B2, “Indole AHR inhibitors and uses thereof” (Ikena Oncology, Inc., priority 2017, dated 2022) come the findings set out here.

The structures appear in SMILES notation. pIC50: −log10 of the molar value.

In this assay the target is T1, AHR (UniProt P35869).
T1 construct: IC50
T1 sequence (P35869 1-848): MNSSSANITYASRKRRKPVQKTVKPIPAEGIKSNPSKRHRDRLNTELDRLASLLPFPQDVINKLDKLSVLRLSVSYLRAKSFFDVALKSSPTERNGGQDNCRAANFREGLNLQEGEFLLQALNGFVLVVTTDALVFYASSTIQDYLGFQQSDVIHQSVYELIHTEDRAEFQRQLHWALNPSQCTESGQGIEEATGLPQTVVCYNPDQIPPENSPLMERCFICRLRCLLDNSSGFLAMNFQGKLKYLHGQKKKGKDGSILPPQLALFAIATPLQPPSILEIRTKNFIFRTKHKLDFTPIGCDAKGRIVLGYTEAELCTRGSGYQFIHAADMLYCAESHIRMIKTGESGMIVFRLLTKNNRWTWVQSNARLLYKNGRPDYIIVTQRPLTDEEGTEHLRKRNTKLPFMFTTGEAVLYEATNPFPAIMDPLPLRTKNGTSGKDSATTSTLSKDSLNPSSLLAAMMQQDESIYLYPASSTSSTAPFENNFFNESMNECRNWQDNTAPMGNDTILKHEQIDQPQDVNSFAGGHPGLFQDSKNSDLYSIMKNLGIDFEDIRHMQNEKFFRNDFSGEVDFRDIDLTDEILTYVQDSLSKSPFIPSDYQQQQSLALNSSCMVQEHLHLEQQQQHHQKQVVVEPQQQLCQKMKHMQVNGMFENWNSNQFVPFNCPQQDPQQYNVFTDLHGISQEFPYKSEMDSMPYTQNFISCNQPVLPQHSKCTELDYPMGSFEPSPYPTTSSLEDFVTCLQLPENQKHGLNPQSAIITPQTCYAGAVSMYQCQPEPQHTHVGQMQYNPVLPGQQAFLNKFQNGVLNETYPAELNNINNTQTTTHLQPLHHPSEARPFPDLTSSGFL
Kind of assay: DRE-Luciferase Reporter Assay (Alternate Method) (Example 1B). The class given is cell-based, murine or human. The following applies: cell line and AHR activating ligand not specified. In general terms: A reporter such as luciferase makes a cellular process visible.
In general, pIC50 refers to the IC50 on a negative log10 scale, so that one unit is a factor of ten. A low value points to a large IC50. `O=C(O)c1cnn2c(NCCc3c[nH]c4ccc(O)cc34)cc(-c3cncc(F)c3)nc12` [I-168] showed a negative-log IC50 (pIC50) below 5.82.

As for `Cc1c(-c2cncc(F)c2)nc2c(C)cnn2c1NCCc1c[nH]c2ccccc12` [I-169, 5-(5-Fluoro-3-pyridyl)-N-[2-(1H-indol-3-yl)ethyl]-3,6-dimethyl-pyrazolo[1,5-a]pyrimidin-7-amine], the negative logarithm of the IC50 (pIC50) was 6.00 to 6.30.

`Cc1cnn2c(NCC(C)(C)c3c[nH]c4ccccc34)cc(-c3cncc(F)c3)nc12` [I-170]: the pIC50 is below 5.82.

`Cc1cnn2c(NCC(C)c3c[nH]c4ccccc34)cc(-c3cncc(F)c3)nc12` (stereo not shown) [I-171, 5-(5-Fluoro-3-pyridyl)-N-[2-(1H-indol-3-yl)propyl]-3-methyl-pyrazolo[1,5-a]pyrimidin-7-amine] showed a pIC50 of 5.82 to 6.00.

On to `Cc1cnn2c(NCCc3c[nH]c4c(O)cccc34)cc(-c3cncc(F)c3)nc12` [I-172, 3-[2-[[5-(5-Fluoro-3-pyridyl)-3-methyl-pyrazolo[1,5-a]pyrimidin-7-yl]amino]ethyl]-1H-indol-7-ol], for which the negative-log IC50 (pIC50) was 5.82 to 6.00.

In turn, `Cc1cnn2c(NCCc3cn[nH]c3)cc(-c3cncc(F)c3)nc12` [I-173] showed a negative-log IC50 (pIC50) below 5.82.

In turn, `Cc1cnn2c(N[C@H](Cc3c[nH]c4ccccc34)CN(C)C)cc(-c3cncc(F)c3)nc12` [I-174] gave a pIC50 below 5.82.

`CN(C)c1cnn2c(N[C@@H]3CCc4[nH]c5ccccc5c4C3)cc(-c3cncc(F)c3)nc12` [I-175, 5-(5-Fluoro-3-pyridyl)-N3,N3-dimethyl-N7-[(3R)-2,3,4,9-tetrahydro-1H-carbazol-3-yl]pyrazolo[1,5-a]pyrimidine-3,7-diamine] showed a pIC50 below 5.82.

As to `Cc1cnn2c(NC(Cc3c[nH]c4ccccc34)CN(C)C)cc(-c3cncc(F)c3)nc12` (stereo not shown) [I-176], the pIC50 is below 5.82.

`Cc1cnn2c(NC(CO)Cc3c[nH]c4ccccc34)cc(-c3cncc(F)c3)nc12` (stereo not shown) [I-178] gave a pIC50 below 5.82.

For `COc1cccc2c(CCNc3cc(-c4cncc(F)c4)nc4c(C)cnn34)c[nH]c12` [I-179, 5-(5-Fluoro-3-pyridyl)-N-[2-(7-methoxy-1H-indol-3-yl)ethyl]-3-methyl-pyrazolo[1,5-a]pyrimidin-7-amine], the negative-log IC50 (pIC50) was above 6.30.

Regarding `Cc1cnn2c(NCCc3cc[nH]n3)cc(-c3cncc(F)c3)nc12` [I-180, 5-(5-Fluoro-3-pyridyl)-3-methyl-N-[2-(1H-pyrazol-3-yl)ethyl]pyrazolo[1,5-a]pyrimidin-7-amine], the negative-log IC50 (pIC50) was 6.00 to 6.30.

In turn, `CC(C)c1cnn2c(NC3CC3c3ccc(O)cc3)cc(-c3cncc(F)c3)nc12` (stereo not shown) [I-181] showed a negative-log IC50 (pIC50) below 5.82.

In the case of `CNC(=O)C(Cc1c[nH]c2ccccc12)Nc1cc(-c2cncc(F)c2)nc2c(C)cnn12` (stereo not shown) [I-182], the pIC50 was below 5.82.

`O=C(O)c1cnn2c(NCCc3c[nH]c4ccccc34)cc(-c3cncc(F)c3)nc12` [I-183] had a pIC50 below 5.82.

Compound `Cc1cnn2c(OCCc3c[nH]c4ccccc34)cc(-c3cncc(F)c3)nc12` [I-184] gave a pIC50 below 5.82.

The compound `Cc1cnn2c(N[C@@H](CO)Cc3c[nH]c4ccccc34)cc(-c3cncc(F)c3)nc12` [I-185] gave a negative-log IC50 (pIC50) below 5.82.

The compound `Cc1cnn2c(NCCc3c[nH]c4cccnc34)nc(-c3cncc(F)c3)nc12` [I-186, 2-(5-Fluoro-3-pyridyl)-8-methyl-N-[2-(1H-pyrrolo[3,2-b]pyridin-3-yl)ethyl]pyrazolo[1,5-a][1,3,5]triazin-4-amine] had a negative-log IC50 (pIC50) of 6.00 to 6.30.

`Cc1cnn2c(N[C@H](Cc3c[nH]c4ccccc34)C(=O)N(C)C)cc(-c3cncc(F)c3)nc12` [I-187a] gave a negative logarithm of the IC50 (pIC50) below 5.82.

In turn, `Cc1cnn2c(N[C@@H](Cc3c[nH]c4ccccc34)C(=O)N(C)C)cc(-c3cncc(F)c3)nc12` [I-187b, (2S)-2-[[5-(5-Fluoro-3-pyridyl)-3-methyl-pyrazolo[1,5-a]pyrimidin-7-yl]amino]-3-(1H-indol-3-yl)-N,N-dimethyl-propanamide] showed a pIC50 below 5.82.

For `CNC(=O)[C@@H](Cc1c[nH]c2ccccc12)Nc1cc(-c2cncc(F)c2)nc2c(C)cnn12` [I-189], the negative-log IC50 (pIC50) is below 5.82.

The compound `Cc1cnn2c(N[C@H](Cc3c[nH]c4ccccc34)C(N)=O)cc(-c3cncc(F)c3)nc12` [I-190a] gave a negative-log IC50 (pIC50) below 5.82.

`Cc1cnn2c(NC(Cc3c[nH]c4ccccc34)C(N)=O)cc(-c3cncc(F)c3)nc12` (stereo not shown) [I-190b] had a pIC50 below 5.82.

Consider `Fc1cncc(-c2cc(NCCc3c[nH]c4cccnc34)n3ncc(Br)c3n2)c1` [I-192, 3-Bromo-5-(5-fluoro-3-pyridyl)-N-[2-(1H-pyrrolo[3,2-b]pyridin-3-yl)ethyl]pyrazolo[1,5-a]pyrimidin-7-amine], for which the negative logarithm of the IC50 (pIC50) was 6.00 to 6.30.

For `Cc1cnn2c(NCCc3ccnc(O)c3)cc(-c3cncc(F)c3)nc12` [I-193], the pIC50 was below 5.82.

In turn, `Cc1cnn2c(NCCc3ccc(O)nc3)cc(-c3cncc(F)c3)nc12` [I-194] had a pIC50 below 5.82.

In turn, `Cc1cnn2c(NCCc3ccc(NS(C)(=O)=O)cc3)cc(-c3cncc(F)c3)nc12` [I-195, N-[4-[2-[[5-(5-Fluoro-3-pyridyl)-3-methyl-pyrazolo[1,5-a]pyrimidin-7-yl]amino]ethyl]phenyl]methanesulfonamide] showed a pIC50 below 5.82.

As to `OCc1cnn2c(NCCc3c[nH]c4ccccc34)cc(-c3cncc(F)c3)nc12` [I-197, [5-(5-Fluoro-3-pyridyl)-7-[2-(1H-indol-3-yl)ethylamino]pyrazolo[1,5-a]pyrimidin-3-yl]methanol], the negative logarithm of the IC50 (pIC50) is above 6.30.

`C[C@H](O)c1cnn2c(N[C@@H]3CCc4[nH]c5ccccc5c4C3)cc(-c3cncc(F)c3)nc12` [I-198b, (1S)-1-[5-(5-fluoro-3-pyridyl)-7-[[(3R)-2,3,4,9-tetrahydro-1H-carbazol-3-yl]amino]pyrazolo[1,5-a]pyrimidin-3-yl]ethanol] gave a negative-log IC50 (pIC50) of 6.00 to 6.30.

Compound `CN(C)c1cnn2c(N[C@@H]3Cc4ccc(O)cc4C3)cc(-c3cncc(F)c3)nc12` [I-204a, (2R)-2-[[3-(dimethylamino)-5-(5-fluoro-3-pyridyl)pyrazolo[1,5-a]pyrimidin-7-yl]amino]indan-5-ol] showed a pIC50 above 6.30.

`CC(=O)Nc1ccc(CCNc2cc(-c3cncc(F)c3)nc3c(C)cnn23)cc1` [I-206] gave a negative logarithm of the IC50 (pIC50) below 5.82.

In turn, `Cc1cnn2c(NCCc3c[nH]cn3)cc(-c3cncc(F)c3)nc12` [I-207] had a pIC50 below 5.82.

`Cc1cnn2c(NCCc3cccc(O)c3)cc(-c3cncc(F)c3)nc12` [I-210, 3-[2-[[5-(5-fluoro-3-pyridyl)-3-methyl-pyrazolo[1,5-a]pyrimidin-7-yl]amino]ethyl]phenol] showed a pIC50 of 5.82 to 6.00.

Consider `Cc1cnn2c(NCCc3ccc(N)cc3)cc(-c3cncc(F)c3)nc12` [I-211, N-[2-(4-Aminophenyl)ethyl]-5-(5-fluoro-3-pyridyl)-3-methyl-pyrazolo[1,5-a]pyrimidin-7-amine], for which the pIC50 is below 5.82.

In the case of `CC(C)c1cnn2c(N[C@H]3CCc4[nH]c5c(F)cccc5c4C3)cc(-c3cncc(F)c3)nc12` [I-212], the pIC50 was below 5.82.

`Cc1cnn2c(NCCc3ccc(O)cc3)cc(-c3cncc(F)c3)nc12` [I-213, 4-[2-[[5-(5-fluoro-3-pyridyl)-3-methyl-pyrazolo[1,5-a]pyrimidin-7-yl]amino]ethyl]phenol] had a negative logarithm of the IC50 (pIC50) above 6.30.

`Cc1cnn2c(NCCc3c[nH]c4ccc(O)cc34)cc(-c3cncc(F)c3)nc12` [I-215, 3-[2-[[5-(5-Fluoro-3-pyridyl)-3-methyl-pyrazolo[1,5-a]pyrimidin-7-yl]amino]ethyl]-1H-indol-5-ol] had a negative-log IC50 (pIC50) below 5.82.

Consider `Cc1cnn2c(N[C@@H]3CCc4[nH]c5c(F)cccc5c4C3)cc(-c3cncc(F)c3)nc12` [I-216a, (3R)-8-Fluoro-N-[5-(5-fluoro-3-pyridyl)-3-methyl-pyrazolo[1,5-a]pyrimidin-7-yl]-2,3,4,9-tetrahydro-1H-carbazol-3-amine], for which the pIC50 was 6.00 to 6.30.

Regarding `Cc1cnn2c(N[C@H]3CCc4[nH]c5c(F)cccc5c4C3)cc(-c3cncc(F)c3)nc12` [I-216b], the pIC50 was below 5.82.

Regarding `Cc1cnn2c(NCCc3ccccc3)cc(-c3cncc(F)c3)nc12` [I-218, 5-(5-fluoro-3-pyridyl)-3-methyl-N-(2-phenylethyl)pyrazolo[1,5-a]pyrimidin-7-amine], the pIC50 was above 6.30.

Take `CC(C)c1cnn2c(N[C@H]3Cc4ccc(O)cc4C3)cc(-c3cncc(F)c3)nc12` [I-220, (2S)-2-[[5-(5-fluoro-3-pyridyl)-3-isopropyl-pyrazolo[1,5-a]pyrimidin-7-yl]amino]indan-5-ol]: the negative-log IC50 (pIC50) was above 6.30.

In turn, `CC(C)c1cnn2c(NC3CCc4[nH]c5c(F)cccc5c4C3)cc(-c3cncc(F)c3)nc12` (stereo not shown) [I-221] had a negative logarithm of the IC50 (pIC50) below 5.82.

With `Cc1[nH]c2c(F)cccc2c1CCNc1cc(-c2cncc(F)c2)nc2c(C(=O)N3CCOCC3)cnn12` [I-225, [7-[2-(7-Fluoro-2-methyl-1H-indol-3-yl)ethylamino]-5-(5-fluoro-3-pyridyl)pyrazolo[1,5-a]pyrimidin-3-yl]-morpholino-methanone], the pIC50 is above 6.30.
